Laboratory results as given in PubChem BioAssay (NCI).
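Interpolation was linear, between the two tested concentrations surrounding the appropriate level; five concentrations were tested over 48 hours in 96-well plates. GI50 marks 50% less growth. TGI: total growth inhibition.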

Key:
Assay in all cases: NCI tumour cell line growth inhibition, 48 h
[1] = test system: DLD-1 colon
[2] = test system: M14 melanoma
[3] = test system: NCI-H226 lung
[4] = test system: OVCAR-5 ovarian
[5] = test system: RXF 393 renal
[6] = test system: TK-10 renal
[7] = test system: U251 CNS
[8] = test system: CAKI-1 renal
[9] = test system: MDA-N
[10] = test system: NCI/ADR-RES ovarian

Row | Compound | TGI [1] | TGI [2] | TGI [3] | TGI [4] | TGI [5] | TGI [6] | TGI [7] | TGI [8] | TGI [9] | TGI [10] | GI50 [8] | GI50 [1] | GI50 [3] | GI50 [10] | GI50 [4] | GI50 [5] | GI50 [7]
1 | C1=C(c2ccccc2)SC(N2CCCCC2)S1 (centres undefined) | > 100 µM | > 100 µM | > 100 µM | > 100 µM | > 100 µM | > 100 µM | > 100 µM |  |  |  |  |  |  |  |  |  | 
2 | COC(=O)Cc1cc(O)c2c(c1O)C(=O)c1ccccc1C2=O | > 100 µM | > 100 µM | > 100 µM | > 100 µM | 63.7 µM | > 79.9 µM | > 93.2 µM | > 100 µM | > 100 µM | > 100 µM |  |  |  |  |  |  | 
3 | CCOC(=O)C(C#N)(Cc1c[nH]c2ccccc12)NC(C)=O (centres undefined) | > 100 µM | > 100 µM | > 100 µM | > 100 µM | > 100 µM | > 100 µM | > 100 µM | > 100 µM |  |  |  |  |  |  |  |  | 
4 | CCc1n[nH]c(=O)n1CCCCCCCCCCCCn1c(CC)n[nH]c1=O |  | 95.8 µM | > 100 µM | > 100 µM | > 100 µM | > 100 µM | 86.4 µM | > 100 µM | > 100 µM | > 100 µM |  |  |  |  |  |  | 
5 | C=CCOC(=O)N1c2ccc(O[Si](C)(C)C(C)(C)C)cc2[C@@]23O[C@@]24[C@@H]1C#C/C=C\C#C[C@]3(O)C(OC)(OC)C[C@@H]4C |  | > 100 µM | > 100 µM | > 100 µM | > 100 µM | > 100 µM | > 100 µM | > 100 µM | > 100 µM | > 100 µM |  |  |  |  |  |  | 
6 | O=C(O)CC(Cc1ccccc1Cl)C(=O)O (centres undefined) |  | > 100 µM | > 100 µM | > 100 µM | > 100 µM | > 100 µM | > 100 µM | > 100 µM | > 100 µM | > 100 µM |  |  |  |  |  |  | 
7 | O=c1[nH]cc(NCCCl)c(=O)[nH]1 |  | > 100 µM | > 100 µM | > 100 µM | > 100 µM | > 100 µM | > 100 µM | > 100 µM | > 100 µM | > 100 µM |  |  |  |  |  |  | 
8 | CNC(C)(C)Cc1ccc(Cl)cc1 | > 100 µM | > 100 µM |  |  | > 100 µM | > 100 µM | > 100 µM | > 100 µM |  |  |  |  |  |  |  |  | 
9 | Cc1ccc(Nc2nc3[nH]ccc3c(=O)[nH]2)cc1 |  | > 100 µM | > 100 µM | > 100 µM | > 100 µM | > 100 µM | > 100 µM | > 100 µM | > 100 µM | > 100 µM |  |  |  |  |  |  | 
10 | CC(C)/C(Cl)=N/OC(=O)Nc1ccc(Br)cc1 |  | 8.33 µM | 30.5 µM | 28.6 µM | 23.9 µM | 26.2 µM | 37.3 µM | 3.2 µM | 15.7 µM | 27.8 µM |  |  |  |  |  |  | 
11 | CN(C)CC(O)c1ccc(Cl)c2ccccc12 (centres undefined) |  | 33 µM | > 57 µM | > 100 µM | > 64.9 µM | > 94 µM | > 90.6 µM | > 96.6 µM | > 63.8 µM | > 100 µM |  |  |  |  |  |  | 
12 | Cc1ccc2nc(SCC(=O)N=Nc3c(O)[nH]c4ccccc34)n(-c3ccccc3)c(=O)c2c1 |  | 29.8 µM | 35.2 µM | 29.3 µM | 27 µM | 29.2 µM | 24.8 µM | 43.3 µM | 37.6 µM | 26.1 µM |  |  |  |  |  |  | 
13 | S=C1c2ccc(Cl)cc2-n2cnnc2C2CSCN12 (centres undefined) |  | > 100 µM | > 100 µM | > 100 µM | > 100 µM | > 100 µM | > 100 µM | > 100 µM | > 100 µM | > 100 µM |  |  |  |  |  |  | 
14 | O=C1c2cccc([N+](=O)[O-])c2C(=O)N1Cc1ccccc1 |  | > 100 µM | > 100 µM | > 100 µM | > 100 µM | > 100 µM | > 100 µM | > 100 µM | > 100 µM | > 100 µM |  |  |  |  |  |  | 
15 | COc1ccc2c(c1)C(=O)CC1c3cnccc3C(=O)N21 (centres undefined) |  | > 100 µM | > 100 µM | > 100 µM | > 100 µM | > 100 µM | > 100 µM | > 100 µM | > 100 µM | > 100 µM |  |  |  |  |  |  | 
16 | Cc1cc([NH-])c([NH-])cc1C.[Cl][Pt+2][Cl] | 28.9 µM |  | 64 µM | > 83.5 µM | 31.1 µM |  | 17 µM | 27.6 µM |  | 42.7 µM | 12 µM | 8 µM | 13.5 µM | 16.3 µM | > 59.8 µM | 16.3 µM | 5.24 µM
17 | CC(=O)O[C@H]1CC(C)(C)C(=C=C/C(C)=C/C=C/C=C/C=C(C)/C=C2C=C(/C=C/[C@@]34O[C@]3(C)C[C@@H](O)CC4(C)C)C(=O)O/2)[C@](C)(O)C1 |  | 25.6 µM | 4.88 µM | 68.7 µM | 20.5 µM | 21.3 µM | > 100 µM | 98.1 µM | 49.5 µM | 34.5 µM |  |  |  |  |  |  | 
18 | Fc1ccc(C(OCCN2CCN(CCCc3ccccc3)CC2)c2ccc(F)cc2)cc1 |  | 11.3 µM | 13.9 µM | 15.7 µM | 11.3 µM | 18.7 µM | 14.3 µM | 13.5 µM | 14.3 µM | 12.6 µM |  |  |  |  |  |  | 
19 | CC(=O)Nc1ccc2c(C)c3c(nc2n1)[nH]c1ccccc13 |  | 82.2 µM | 67.9 µM | > 100 µM | > 100 µM | > 100 µM | > 100 µM | 96.2 µM | 44 µM | 62.1 µM |  |  |  |  |  |  | 
20 | CCCCCOc1ccc(C=Nc2ccc(CCc3ccc(N=Cc4ccc(OCCCCC)cc4)cc3)cc2)cc1 | > 100 µM |  | > 100 µM | > 100 µM | > 100 µM |  | > 100 µM |  |  | > 100 µM |  |  |  |  |  |  | 
21 | CSc1ncc2c(n1)C(C#N)C1Sc3ccccc3N1C2=O (centres undefined) |  | > 100 µM | > 100 µM | > 100 µM | > 100 µM | > 100 µM | > 100 µM | > 100 µM | > 100 µM | > 100 µM |  |  |  |  |  |  | 
22 | CC(N=NNc1ccc(-c2nc3ccccc3[nH]2)cc1)C(=O)O (centres undefined) |  | > 100 µM | > 100 µM | > 100 µM | > 100 µM | > 100 µM | 60.8 µM | > 100 µM | > 100 µM | 90.6 µM |  |  |  |  |  |  | 
23 | C#CCNC(CSSCC(N)C(=O)O)C(=O)O (centres undefined) |  | > 100 µM | > 100 µM | > 100 µM | > 100 µM | > 100 µM | > 100 µM | > 100 µM | > 100 µM | > 100 µM |  |  |  |  |  |  | 
